“Also recorded” adds a separate entry of the source. Counter-ions that a name gives are not always drawn.
Assays:
[1] = target: T1, butyrylcholinesterase (BuChE) enzyme (Homo sapiens (Human), UniProt P06276); experiment: In-vitro butyryl cholinesterase inhibitory activity (DTNB, 96-well); assay type: biochemical; details: for IC50: read-out: Butyrylcholinesterase Inhibition Activity IC50 ± SEM; for Butyrylcholinesterase inhibition, rating in words: compared with standard galantamine hydrobromide
T1 sequence (P06276 29-602): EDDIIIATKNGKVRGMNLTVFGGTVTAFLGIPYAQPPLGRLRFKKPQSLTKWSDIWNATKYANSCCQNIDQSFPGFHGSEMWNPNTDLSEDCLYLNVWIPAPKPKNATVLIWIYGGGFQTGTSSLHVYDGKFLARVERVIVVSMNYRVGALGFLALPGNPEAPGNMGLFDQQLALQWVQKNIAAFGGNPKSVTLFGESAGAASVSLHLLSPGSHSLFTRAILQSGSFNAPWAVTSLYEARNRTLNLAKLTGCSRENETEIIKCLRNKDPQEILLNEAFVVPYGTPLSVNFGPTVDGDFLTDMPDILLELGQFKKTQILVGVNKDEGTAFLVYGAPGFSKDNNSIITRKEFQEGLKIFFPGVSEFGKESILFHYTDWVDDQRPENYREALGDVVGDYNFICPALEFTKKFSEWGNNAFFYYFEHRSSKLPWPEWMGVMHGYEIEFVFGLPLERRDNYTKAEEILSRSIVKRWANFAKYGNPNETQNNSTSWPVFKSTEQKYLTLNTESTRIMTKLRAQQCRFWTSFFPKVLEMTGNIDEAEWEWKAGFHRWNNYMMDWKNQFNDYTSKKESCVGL
Description: After that 10 μL of pre-prepared butyrylthiocholine chloride (0.5 mM) substrate was added in the dark for 15 minutes, followed by the addition DTNB (0.5 mM), to produce thionitrobenzoate (TNB), whose absorbance range in 412 nm. 5-Thio-2 nitrobenzoate (TNB) (yellow color) anion was produced when thiocholine binds with DTNB which was measured in the form of absorbance in each well. Each compound was evaluated in triplicate at 0.5 mM.
The enzyme inhibitory activity was calculated using the following formula: Percent Inhibition=100−(O.D. of test/O.D. of control)×100
Where test is the enzyme activity with sample, and control is the enzyme activity without sample, and O.D. is optical density.
The IC50 of the compounds was calculated using EZ-Fit Enzyme Kinetic Program (Perrella Scientific Inc., Amhrest, U.S.A.).

[2] = target: T1, butyrylcholinesterase (BuChE) enzyme; experiment: Kinetic studies of butyrylcholinesterase inhibition (L-B reciprocal plots); assay type: biochemical; details: four substrate concentrations (0.05, 0.1, 0.2, 0.4 mM); for Ki: read-out: Butyrylcholinesterase Inhibition Activity Ki ± SEM
Description: 0.5 mM concentrations of each inhibitor, as well as control, were examined for their butyrylcholinesterase inhibitory activity using four different substrate concentrations (0.05, 0.1, 0.2, and 0.4 mM).

[3] = butyrylthiocholine chloride substrate, pH 8.0, 25° C.

Compound | IC50 [1, 3] | Butyrylcholinesterase inhibition, rating in words [1] | Butyrylcholinesterase Inhibition Activity IC50 ± SEM [1, 3] | Type of inhibition of butyrylcholinesterase [2] | Ki [2]
Cc1c(N)c(=O)n(-c2ccccc2)n1C [4-aminoantipyrine, 4-Aminoantipyrine] | 69700 ± 400 nM | moderate inhibitor |  |  | 
Cc1c(N(Cc2cccc(Cl)c2)Cc2cccc(Cl)c2)c(=O)n(-c2ccccc2)n1C [Compound 1, 4-(Bis(3-chlorobenzyl)amino)-1,5-dimethyl-2-phenyl-1,2-dihydro-3H-pyrazol-3-one] | 100 nM | potent inhibitors |  |  | 
Cc1c(N(Cc2ccccc2Cl)Cc2ccccc2Cl)c(=O)n(-c2ccccc2)n1C [Compound 2, 4-(Bis(2-chlorobenzyl)amino)-1,5-dimethyl-2-phenyl-1,2-dihydro-3H-pyrazol-3-one] | 500 nM | potent inhibitors |  |  | 
Cc1c(N(Cc2cccc(I)c2)Cc2cccc(I)c2)c(=O)n(-c2ccccc2)n1C [Compound 3, 4-(Bis(3-iodobenzyl)amino)-1,5-dimethyl-2-phenyl-1,2-dihydro-3H-pyrazol-3-one] | 400 nM | potent inhibitors |  |  | 
Cc1c(N(Cc2ccccc2I)Cc2ccccc2I)c(=O)n(-c2ccccc2)n1C [Compound 4, 4-(Bis(2-iodobenzyl)amino)-1,5-dimethyl-2-phenyl-1,2-dihydro-3H-pyrazol-3-one] |  | completely inactive | Not Active |  | 
Cc1c(N(Cc2ccc(I)cc2)Cc2ccc(I)cc2)c(=O)n(-c2ccccc2)n1C [Compound 5, 4-(Bis(4-iodobenzyl)amino)-1,5-dimethyl-2-phenyl-1,2-dihydro-3H-pyrazol-3-one] | 2430 nM | potent inhibitors |  | competitive inhibition; also recorded: Competitive Inhibitor | 5670 nM
Cc1c(N(Cc2ccccc2Br)Cc2ccccc2Br)c(=O)n(-c2ccccc2)n1C [Compound 6, 4-(Bis(2-bromobenzyl)amino)-1,5-dimethyl-2-phenyl-1,2-dihydro-3H-pyrazol-3-one] | 700 nM | potent inhibitors |  | non-competitive type of inhibition; also recorded: Non-competitive Inhibitor | 2400 nM
Cc1c(N(Cc2ccc(Br)cc2)Cc2ccc(Br)cc2)c(=O)n(-c2ccccc2)n1C [Compound 7, 4-(Bis(4-bromobenzyl)amino)-1,5-dimethyl-2-phenyl-1,2-dihydro-3H-pyrazol-3-one] | 58700 ± 400 nM | moderate inhibitor |  |  | 
Cc1c(N(Cc2cccc(Br)c2)Cc2cccc(Br)c2)c(=O)n(-c2ccccc2)n1C [Compound 8, 4-(Bis(3-bromobenzyl)amino)-1,5-dimethyl-2-phenyl-1,2-dihydro-3H-pyrazol-3-one] | 26.2 nM | potent inhibitors |  |  | 
COc1ccc2c3c1O[C@H]1C[C@@H](O)C=C[C@@]31CCN(C)C2 [galantamine hydrobromide, reference compound] |  |  |  | Mixed type Inhibitor | 

From US11643395B2, “Derivatives of 4-aminoantipyrine as anti-Alzheimers butyrylcholinesterase inhibitors” (priority 2021, dated 2023)
